Assay results as given in patent publication US20220211876A1, “LESION DETECTION METHOD” (MIE UNIVERSITY, priority 2019, published 2022).
“Also recorded” adds a separate entry of the source.

Tests used:
[1] = test system: RAS; test: Staining of cells that overexpress a cancer-related gene product (RAS); format: cell-based
Description: For the visualization of expression patterns of cancer-related genes in living cells, the inventors stained a cancer-related gene product to chromatic color using staining agents containing edible dyes and photographed. An edible dye is a natural or artificial dye which has been permitted to be administered to human (For example, a dye for food coloring, or a dye that can be taken as supplements). Specifically, a staining agent containing curcumins (C21H20O6) can be used to selectively stain a STAT3-based cancer-related gene product. In addition, a staining agent containing Red #3 (erythrosine) can be used to selectively stain the expression pattern of ras-based cancer-related gene. More specifically, as a staining agent containing curcumins, a solution containing 1% by weight of curcumin was prepared. As a staining agent containing Red #3, a solution containing 1% by weight of […] was prepared. As a staining agent containing curcumins, a curcumin solution 5˜100-fold diluted from its stock solution (for example, a liquid containing 5% curcumin solution, 45% glycerol, and 50% ethanol) with physiological saline can be used. […] Accordingly, the nucleus surrounded by the cytoplasm is clearly visualized, making it clearer to be analyzed.

[2] = Fluorescent color by laser irradiation; format: physicochemical
Description: Regarding staining an organ tissue, the object in the organ to be visualized differs depending on the staining agent used. For example, curcumin and Red #3 are suitable for staining epithelial and glandular cells, as well as cancerous cells derived from them. On the other hand, Red #106 is suitable for staining connective tissue and capillaries. By laser irradiation, curcumin gives a green fluorescent color, while Red #3 and Red #106 give a red fluorescent color. Therefore, double staining with curcumin and Red #106 makes it easier to identify structure of cells in tissue by superimposing stained images. Accordingly, micro cancer tissue with diameter of about 1 mm and invasive cancer cell groups can be detected.
(§1) A multiphoton laser microscope of FVMPE-RS (Olympus) was used with the irradiation wavelength of 800 nm, wherein the laser irradiation was performed at 5.8˜48.2% of its full power output. A confocal laser microscope of FV1000 (Olympus) was used with the irradiation wavelength of 488 nm and 594 nm, wherein the laser irradiation at 488 nm was performed at 15˜29.4% of its full power output, and the laser irradiation at 594 nm was performed at 13˜13.5% of its full power output.

[3] = test system: large intestine of a mouse (normal mucosal tissue); test: Vital staining of normal mouse large intestine, imaging with multiphoton or confocal laser microscope; format: in vivo; details: for structures stained in double staining: curcumin and Red #106 from lumen side, FIG. 4
Procedure: (§2) 100 mg of curcumin (Tokyo Kasei, cat. #C2302, purity 97.0%) was suspended in 5 mL of ethanol, and further diluted 10-fold with ethanol. It was mixed with the same amount of glycerin, and further diluted 10-fold with glycerin. The mixture was mixed with the same amount of purified water to obtain a staining solution of curcumin. Regarding Red #106, its staining solution is obtained by dissolving the powder in saline to achieve a concentration of 1 mg/mL.
(§3) C57BL/6N mice purchased from Japan SLC, Inc. were used in the tests. All tests were performed on male, 8-week-old mice weighing 20˜25 grams.
as §1

[4] = test system: taste bud; test: Vital staining by coating onto tongue mucosa, laser microscope; format: in vivo, mouse; details: coating on tongue mucosa
Description: FIG. 20 is a diagram showing, at high magnification, an example of visualization with a multiphoton laser microscope of a taste bud, which is a taste sensory device, after vital staining by coating curcumin onto tongue mucosa of a mouse. FIG. 20 to FIG. 22 are diagrams in which a taste bud, a taste sensory device, is visualized by a laser microscope after vital staining by coating curcumin on mouse tongue mucosa. FIG. 20 and FIG. 21 further show hematoxylin-eosin staining images of taste buds. The nuclei of sensory neuronal cells are not stained with curcumin, so that they are recognized as black negative images. By coating curcumin on oral mucosa, the neuronal cells of a taste bud, which is a taste sensory device, can be visualized. Accordingly, taste disorders can be examined in otolaryngologic field.

[5] = test system: large intestine (cancer tumor site) of a colon cancer mouse; test: Vital staining of the cancer tumor site of a colon cancer mouse, laser microscope imaging; format: in vivo
Procedure: as §2, §3
Model mice with colon cancer were prepared by intraperitoneally administering 10 mg/kg of azoxymethane (AOM) dissolved in saline 4 times at weekly intervals to the C57BL/6N mice.
as §1

[6] = test system: nerve fibers (myelin sheath); test: Vital staining of nerve fibers, multiphoton laser microscope; format: in vivo, mouse; details: intraperitoneal administration, FIG. 25
Description: FIG. 25 is a diagram showing, at high magnification, examples of visualization with a laser multiphoton microscope of olfactory nerve fibers after vital staining by intraperitoneal administration of curcumin to a mouse.

[7] = test system: olfactory receptor neurons; test: Vital staining by coating onto nasal mucosa, laser microscope; format: in vivo, mouse; details: coating on nasal mucosa
Description: FIG. 26 is a diagram showing, at high magnification, examples of visualization with a multiphoton laser microscope of olfactory receptor neurons, which are odor sensory cells, after vital staining by coating curcumin onto nasal mucosa of a mouse. […] Since a nucleus is not stained, it is viewed as a black negative image. By coating curcumin on nasal mucosa, olfactory receptor neuronal cells, which are odor sensing cells, can be visualized. Accordingly, olfactory disorders can be examined.

[8] = test system: optic nerve and optic ganglion cells of retina; test: Vital staining of retina by intraperitoneal administration, laser microscope; format: in vivo, mouse; details: curcumin vital staining
Description: FIG. 38 is a diagram of visualization of optic nerves and the optic ganglion cells of retina in vivo after vital staining by intraperitoneal administration of sulforhodamine 101 and curcumin to a mouse. (A) is a diagram of visualization of blood vessels fluorescently labeled with sulforhodamine 101 and a bundle of optic nerve fluorescence-labeled with curcumin. […] In an embodiment of the present invention, the nerve cell layer of retina can be visualized by vital staining with curcumin (FIG. 37). According to FIG. 37, it can be seen that in the layer structure of retina, the cell layer of optic ganglion, inner plexiform layer, bipolar cell layer, outer plexiform layer, and outer nuclear layer can be identified. It can be seen that the blood vessel travel and the optic nerve bundle in retina can be visualized at the same time by double staining with blood vessel staining dye (sulforhodamine 101) and curcumin (FIG. 38A). […] Accordingly, the present invention is very useful for detecting retinal diseases.

[9] = test system: Auerbach's plexus in large intestine; test: Curcumin staining of freshly resected colon of a patient with Hirschsprung-like disease, multiphoton laser microscope; set-up: species or system human
Procedure: In an embodiment of the present invention, curcumin was administered to a freshly resected colon from a patient with Hirschsprung-like disease, and then a multiphoton laser microscope was used to visualize Auerbach's plexus. […] (FIG. 39). Therefore, intraoperative rapid diagnosis by a multiphoton laser microscope of freshly resected large intestine of a patient with Hirschsprung-like disease can be performed and appropriate surgical resection sites can be confirmed.

[10] = target: T1, STAT3 (Homo sapiens, UniProt P40763); test: Staining of cells that overexpress a cancer-related gene product (STAT3); format: cell-based
T1 construct: endogenous in cells
Description: For the visualization of expression patterns of cancer-related genes in living cells, the inventors stained a cancer-related gene product to chromatic color using staining agents containing edible dyes and photographed. An edible dye is a natural or artificial dye which has been permitted to be administered to human (For example, a dye for food coloring, or a dye that can be taken as supplements).
Specifically, a staining agent containing curcumins (C21H20O6) can be used to selectively stain a STAT3-based cancer-related gene product. In addition, a staining agent containing Red #3 (erythrosine) can be used to selectively stain the expression pattern of ras-based cancer-related gene.
More specifically, as a staining agent containing curcumins, a solution containing 1% by weight of curcumin was prepared. As a staining agent containing Red #3, a solution containing 1% by weight of phloxine was prepared. […]
When a staining agent containing curcumins is used, the expression of a STAT3-based cancer-related gene product in living cells can be visualized by staining. […] Accordingly, the nucleus surrounded by the cytoplasm is clearly visualized, making it clearer to be analyzed.

[11] = normal large intestine, five-layer structure
[12] = stained and photographed from luminal side
[13] = isolated large intestine, stained from serosa side
[14] = normal mucosal tissue of large intestine, FIG. 3

T1 sequence (P40763 whole entry, species assumed): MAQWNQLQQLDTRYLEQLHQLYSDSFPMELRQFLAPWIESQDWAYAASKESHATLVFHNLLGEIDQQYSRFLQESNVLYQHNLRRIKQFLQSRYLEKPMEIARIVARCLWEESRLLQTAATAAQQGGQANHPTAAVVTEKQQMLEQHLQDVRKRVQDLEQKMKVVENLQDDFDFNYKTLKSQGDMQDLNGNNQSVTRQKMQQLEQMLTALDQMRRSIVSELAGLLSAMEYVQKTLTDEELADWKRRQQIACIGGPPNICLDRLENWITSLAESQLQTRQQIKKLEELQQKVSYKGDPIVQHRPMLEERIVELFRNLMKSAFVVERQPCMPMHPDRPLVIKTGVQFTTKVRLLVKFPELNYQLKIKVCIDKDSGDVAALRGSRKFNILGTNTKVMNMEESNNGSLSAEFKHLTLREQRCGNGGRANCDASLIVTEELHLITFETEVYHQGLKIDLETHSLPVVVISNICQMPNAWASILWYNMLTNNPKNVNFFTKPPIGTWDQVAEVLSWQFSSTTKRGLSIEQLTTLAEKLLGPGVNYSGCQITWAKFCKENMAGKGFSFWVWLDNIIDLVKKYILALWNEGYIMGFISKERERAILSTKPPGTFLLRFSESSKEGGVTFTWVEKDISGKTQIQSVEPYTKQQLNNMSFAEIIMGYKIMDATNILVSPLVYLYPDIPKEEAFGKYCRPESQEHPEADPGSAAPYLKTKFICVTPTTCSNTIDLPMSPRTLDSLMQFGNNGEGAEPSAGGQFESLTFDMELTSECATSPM

O=C1OC2(c3ccccc31)c1cc(I)c(O)c(I)c1Oc1c2cc(I)c(O)c1I [Red #3, erythrosine]
staining of cells that overexpress RAS [1]: can stain
fluorescent color [2]: red

CCN(CC)c1ccc2c(-c3ccc(S(=O)(=O)[O-])cc3S(=O)(=O)[O-])c3ccc(=[N+](CC)CC)cc-3oc2c1.[Na+] [Red #106]
fluorescent color [2]: red
structures stained in double staining ([3]; isolated large intestine): connective tissue, capillaries and cell membranes of epithelial and glandular cells
staining of the network of capillaries surrounding the glandular structures of epithelial and glandular layers (1) [3, 11]: strongly positively
staining of the smooth muscle in muscle layer (4) [3, 11]: slightly positively; also recorded: strongly stained; also recorded: strongly positively
staining of the smooth muscle in muscularis mucosae (2) [3, 11]: slightly positively; also recorded: moderately positively
staining of the wall of a thick blood vessel inside muscle layer [3, 11]: strongly positively; also recorded: strongly stained

COc1cc(/C=C/C(=O)CC(=O)/C=C/c2ccc(O)c(OC)c2)ccc1O [curcumin]
staining of nuclei of sensory neuronal cells of taste bud [4]: not stained
staining of cancer cells relative to surrounding or normal tissue ([5]; cancer cells versus surrounding tissue / normal cells): darker than surrounding tissue
staining of cytoplasm of cancer cells [5, 12]: severely positively
staining of nuclei of cancer cells [5, 12]: negatively
fluorescent color [2]: green
staining of myelin sheath [6]: can stain myelin sheath
structures stained in double staining ([3]; isolated large intestine): cytoplasm of epithelial and glandular cells
staining of nerve fibers of Auerbach's plexus [3, 13]: moderately
staining of perikaryon of Auerbach's plexus [3, 13]: strongly
staining of Auerbach's plexus inside muscle layer [3, 11]: strongly positively
staining of epithelial and glandular cells in epithelial and glandular layers (1) [3, 11]: strongly positively
staining of the smooth muscle in muscle layer (4) [3, 11]: slightly positively
staining of the smooth muscle in muscularis mucosae (2) [3, 11]: moderately positively; also recorded: severely positively
staining of the cytoplasm of epithelial cells and gland cells [3, 14]: stained
staining of the nucleus of epithelial cells and gland cells [3, 14]: not stained
staining of the nucleus in perikaryon of Meissner's plexus ([3]; stained from serosa side): does not stain the nucleus
staining of the nucleus in perikaryon of Auerbach's plexus ([3]; stained from serosa side, high magnification): does not stain the nucleus
staining of cytoplasm of olfactory receptor neurons and cilia having odor receptors [7]: stained positively
staining of nucleus of olfactory receptor neurons [7]: not stained
signal of the cytoplasm of optic nerve and small/large ganglion cells [8]: positive signal
signal of the nucleus of optic nerve and small/large ganglion cells [8]: negative signal
identification of the normal part and malformation part of Auerbach's plexus [9]: clearly identified
staining of cells that overexpress STAT3 [10]: can stain cells that overexpress STAT3
